This is an account of results in PMC9949657 (PLOS ONE, 2023).

One experiment deals with patients with RA. Also noted: method as in PMID 31036625. Particulars: compared with placebo, clinical trials for RA; cited from earlier work.
For experiment [1], the system named is ovariectomized cynomolgus monkeys. Also noted: method as in PMID 21497676. Particulars: cited from earlier work.
Experiment [2] deals with mouse collagen-induced arthritis (CIA) model. Briefly: Micro-CT imaging in the CIA model (BMD). Conditions: for BMD: Prednisolone 3 mg/kg oral once daily. Type of experiment: in vivo. On the procedure: (§1) For the mouse CIA model, male DBA/1JNCrlj mice (7 weeks old) were injected with complete Freund’s adjuvant (CFA) (BD Biosciences) containing 2 mg/mL of bovine type II collagen at a site on the back (each 0.1 mL) and were boosted 21 days later in a similar manner. Arthritis scores were determined as previously reported.
The bone morphology of CIA mice was evaluated via micro-CT using Cosmo Scan (Rigaku, Tokyo, Japan). Hind paws of the mice were scanned using the following scanning conditions: 90 kV; 88 μA; field of view, 25 mm; 2 min. The BMD was calculated using the Analyze version 11.0 software (Biomedical Imaging Resource, Mayo Clinic, Rochester, MN). The bone was determined to have a BMD value ≥480 mg/cm^3, and the region of interest for calculating the BMD included the talus and cuboid. BMD was calibrated using a QRM-MicroCT-HA phantom (Quality Assurance in Radiology and Medicine, Moehrendorg, Germany) that was scanned on each day when micro-CT of animals was performed. Calibration was performed via scanning phantoms with densities of 0, 50, 200, 800, and 1200 mg HA/cm^3, and data analysis was performed using the Analyze11.0 Bone Mineral Density Analysis procedure.

The test system is the same in experiment [3]. Nature of the experiment: Histopathological evaluation in the mouse CIA model. Type of experiment: in vivo. Particulars: Prednisolone 3 mg/kg oral, 15 days. As to the method:
as §1
On the day after the final administration, the four limbs of each mouse were harvested and decalcified in […]. The specimens were then embedded in paraffin blocks, cut into sections, stained with hematoxylin and eosin, and randomly selected for microscopic examination. Histopathological assessments were performed as described previously. This experiment was carried out in the laboratory of the BoZo Research Center Inc. (Ibaraki, Japan).

The test system is the same in experiment [4]. Nature of the experiment: Mouse CIA model, arthritis score (15-day treatment). It is filed as in vivo. Particulars: Prednisolone 3 mg/kg oral once daily. As to the method: as §1
The test system of experiment [5] is rat collagen-induced arthritis (CIA) model. Nature of the experiment: Rat CIA model, hind paw volume. Type of experiment: in vivo. Also noted: unit not given beside the values. Particulars: Prednisolone 1 mg/kg oral once daily. As to the method: For the rat CIA model, experimental arthritis was induced and volumes of both hind paws were measured as previously described.

In experiment [6] the test system is mouse collagen-induced arthritis (CIA) model. Briefly: Mouse CIA model, arthritis score of hind paws (21-day treatment). Conditions: Prednisolone 3 mg/kg oral once daily. It is filed as in vivo. On the procedure: as §1

“denosumab: anti-human RANKL monoclonal antibody”: the bone erosion progression result in the experiment on patients with RA was “inhibited”. Also, the “BMD and bone strength” value in experiment [1] is given as “improved”.
As for `C[C@]12C=CC(=O)C=C1CC[C@@H]1[C@@H]2[C@@H](O)C[C@@]2(C)[C@H]1CC[C@]2(O)C(=O)CO` [Prednisolone, prednisolone], the BMD stood at 957.82 mg/mL in experiment [2] (day 1), 961.86 mg/mL in experiment [2] (day 8), 984.25 mg/mL in experiment [2] (day 14) and 1000.83 mg/mL in experiment [2] (day 22). In experiment [2] (Prednisolone 3 mg/kg/day, 21 days), the “decline in BMD, effect compared with vehicle” value is recorded as “did not exhibit significant therapeutic effects”. Also, the “Histological score, Bone damage” value in experiment [3] was 3.50. Also, the “Histological score, Cartilage damage” value in experiment [3] was 4.75. For the same compound, the “Histological score, Inflammation” value in experiment [3] is on record as 5.25. For the same compound, the “Histological score, Pannus” value in experiment [3] was determined as 4.13. The Arthritis score in experiment [4] (day 1) is 6.63; in experiment [4] (day 4), 7.88; in experiment [4] (day 8), 8.38; in experiment [4] (day 11), 7.88; in experiment [4] (day 15) it was 2.88. The Hind paws volume worked out at 2.1 in experiment [5] (day 0); 2.12 in experiment [5] (day 4); 2.09 in experiment [5] (day 7); 2.16 in experiment [5] (day 11); 2.18 in experiment [5] (day 14); 2.25 in experiment [5] (day 18). The compound also displayed a Hind paws volume in experiment [5] (day 21) of 2.37. The “Arthritis score of hind paws” value in experiment [6] (day 1) was 7.33; in experiment [6] (day 8), 6.58; in experiment [6] (day 14), 5.75; in experiment [6] (day 22), 4.75.
